What was measured:
Assay type in all cases: in vivo, Sprague Dawley rats
[1] = system: total white blood cell (WBC); assay: Chemotherapy (cisplatin)-induced leukopenia, total WBC by CBC; conditions: rats; for Total WBC / Total WBC % Change from Control: blood day 4; for Total WBC % Change from Control: vs healthy control
Experimental: (§1) To examine the effect of compounds and methods of the present invention on increasing white blood cells, the following studies were performed. In one series of experiments, male Swiss-Webster mice were administered various compounds of the present invention via oral gavage using a ball-tipped gavage needle. Animals treated by oral gavage received a 10 ml/kg volume of either 0.5% carboxymethyl cellulose (CMC) with 0.1% Polysorbate 80 (vehicle control) or various doses (10-100 mg/kg) of a compound of the present invention in 0.5% CMC with 0.1% Polysorbate 80. Animals were dosed once daily for 3 or 4 days. […] The following study was performed to examine the effect of compounds and methods of the present invention on treatment of chemotherapy-induced leukopenia. Thirty-eight Sprague Dawley male rats (280-300 g) were obtained from Charles River Laboratories. Six rats served as healthy controls. On day 0, the remaining thirty-two rats were treated by intravenous injection (i.v.) with a single dose of cisplatin (CP) (Bedford Laboratories, Bedford Ohio) at 5 mg/kg and by oral gavage with one of the following: Compound S at 60 mg/kg; Compound B at 40 mg/kg; or vehicle 2 ml/kg. Compound was administered on day 0, day 2, and day 4 with the first dose given two hours before the CP injection. Blood samples (0.2 ml) were collected on day 4 as follows. Animals were anesthetized with isoflurane and 0.2 ml of blood was collected from the tail vein into a MICROTAINER EDTA-2K tube (Becton-Dickinson). Blood samples were processed to measure total white blood cell, neutrophil, and lymphocyte levels by CBC analysis as described above in Example 3.

neutrophils = assay: Chemotherapy (cisplatin)-induced leukopenia, neutrophils by CBC; conditions: rats, blood day 4; for Neutrophils % Change from Control: vs healthy control
Experimental: as §1

lymphocytes = assay: Chemotherapy (cisplatin)-induced leukopenia, lymphocytes by CBC; conditions: rats, blood day 4; for Lymphocytes % Change from Control: vs healthy control
Experimental: as §1

[2] = cisplatin 5 mg/kg i.v. day 0, compound 60 mg/kg oral gavage day 0, day 2, day 4
[3] = cisplatin 5 mg/kg i.v. single dose day 0 plus vehicle by oral gavage

With O=C(O)CNC(=O)c1nc(Cl)c2ccccc2c1O [Compound S, [(1-Chloro-4-hydroxy-isoquinoline-3-carbonyl)-amino]-acetic acid] as the molecule, how does the “total white blood cell levels in the cisplatin-treated animals (in words)” value ([1]; 5 mg/kg cisplatin, Compound S 60 mg/kg or Compound B 40 mg/kg oral gavage day 0, 2, 4, day 4) read?
The value was “increased total white blood cell levels”.

And the “Total WBC” value [1, 2]?
Its value is 20.2 10^3 cells/μl.

And the “Total WBC % Change from Control” value [1, 2]?
The value was 19%.

What about the Neutrophils (neutrophils; [2]) of the same molecule?
The Neutrophils was 2.2 10^3 cells/μl.

What about the “Neutrophils % Change from Control” value (neutrophils; [2]) of the same molecule?
The value was 7%.

What about the Lymphocytes (lymphocytes; [2]) of the same molecule?
Its Lymphocytes is 16.2 10^3 cells/μl.

And the “Lymphocytes % Change from Control” value (lymphocytes; [2])?
The value was 21%.

Which results are given for N.N.[Cl][Pt][Cl] [cisplatin, reference compound]?
reduction of total white blood cell levels compared to non-treated control animals ([1]; 5 mg/kg cisplatin, day 4): 21%; Total WBC [1, 3]: 13.3 10^3 cells/μl; Total WBC % Change from Control [1, 3]: −21%; Neutrophils (neutrophils; [3]): 1.6 10^3 cells/μl; Neutrophils % Change from Control (neutrophils; [3]): −22%; Lymphocytes (lymphocytes; [3]): 10.1 10^3 cells/μl; Lymphocytes % Change from Control (lymphocytes; [3]): −24%

— patent publication US20110039879A1, “METHODS FOR INCREASING WHITE BLOOD CELLS” (FibroGen ,Inc., priority 2007, published 2011)
